# Experiments:
# [1] = molecular target: T1, Peroxisome proliferator-activated receptor alpha (Rattus norvegicus, UniProt P37230); assay: Agonist activity at rat PPARalpha in rat H4IIE cells assessed as gene induction; assay type: functional, cell-based
# T1 sequence (P37230 whole entry): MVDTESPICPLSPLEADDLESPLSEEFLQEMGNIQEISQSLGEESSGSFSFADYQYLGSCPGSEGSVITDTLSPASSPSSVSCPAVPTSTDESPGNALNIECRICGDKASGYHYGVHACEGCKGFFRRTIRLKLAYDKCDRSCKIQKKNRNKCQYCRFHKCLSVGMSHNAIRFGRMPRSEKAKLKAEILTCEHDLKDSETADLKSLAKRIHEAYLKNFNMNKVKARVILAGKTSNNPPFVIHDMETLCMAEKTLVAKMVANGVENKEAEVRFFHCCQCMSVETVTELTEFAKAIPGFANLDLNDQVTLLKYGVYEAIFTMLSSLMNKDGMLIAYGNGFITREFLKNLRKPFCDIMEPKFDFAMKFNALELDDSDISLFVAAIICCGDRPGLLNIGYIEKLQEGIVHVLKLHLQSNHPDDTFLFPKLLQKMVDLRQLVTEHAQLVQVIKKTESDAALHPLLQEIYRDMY
# [2] = Cmax in Sprague-Dawley rat at 3 mg/kg, iv or 30 mg/kg, po; assay type: ADME, organism-based; conditions: in vivo
# [3] = Half life at terminal phase in Sprague-Dawley rat at 30 mg/kg, po; assay type: ADME, organism-based; design: dose 30 mg/kg, route oral; conditions: in vivo, read-out: beta t1/2 (converted)
# [4] = Metabolic stability in human liver microsomes at 5 uM; assay type: ADME, Microsome
# [5] = AUC in Sprague-Dawley rat at 3 mg/kg, iv or 30 mg/kg, po; assay type: ADME, organism-based; conditions: plasma
# [6] = Oral bioavailability in Sprague-Dawley rat at 30 mg/kg; assay type: ADME, organism-based; conditions: in vivo
# [7] = Total clearance in Sprague-Dawley rat at 3 mg/kg, iv or 30 mg/kg, po; assay type: ADME, organism-based; conditions: in vivo
# [8] = molecular target: T2, Peroxisome proliferator-activated receptor delta (Homo sapiens, UniProt Q03181); assay: Agonist activity at PPARdelta expressed in HEK293 cells by GAL4 transactivation assay; assay type: functional, cell-based
# T2 sequence (Q03181 whole entry): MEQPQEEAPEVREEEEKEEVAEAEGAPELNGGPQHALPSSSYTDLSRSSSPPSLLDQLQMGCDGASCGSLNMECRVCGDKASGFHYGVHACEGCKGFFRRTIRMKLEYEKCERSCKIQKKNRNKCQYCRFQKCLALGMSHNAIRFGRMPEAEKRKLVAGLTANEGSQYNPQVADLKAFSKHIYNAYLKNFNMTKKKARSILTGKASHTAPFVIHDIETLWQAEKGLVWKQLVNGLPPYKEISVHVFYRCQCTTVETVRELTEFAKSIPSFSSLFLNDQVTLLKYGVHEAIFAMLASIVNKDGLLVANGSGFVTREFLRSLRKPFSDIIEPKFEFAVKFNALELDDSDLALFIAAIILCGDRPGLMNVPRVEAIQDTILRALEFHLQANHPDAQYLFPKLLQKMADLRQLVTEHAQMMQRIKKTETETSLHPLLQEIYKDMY
# [9] = molecular target: T3, Peroxisome proliferator-activated receptor gamma (Homo sapiens) (UniProt P37231); assay: Agonist activity at PPARgamma expressed in HEK293 cells assessed as aP2 gene induction relative to BRL-49653; assay type: functional, cell-based
# T3 sequence (whole entry): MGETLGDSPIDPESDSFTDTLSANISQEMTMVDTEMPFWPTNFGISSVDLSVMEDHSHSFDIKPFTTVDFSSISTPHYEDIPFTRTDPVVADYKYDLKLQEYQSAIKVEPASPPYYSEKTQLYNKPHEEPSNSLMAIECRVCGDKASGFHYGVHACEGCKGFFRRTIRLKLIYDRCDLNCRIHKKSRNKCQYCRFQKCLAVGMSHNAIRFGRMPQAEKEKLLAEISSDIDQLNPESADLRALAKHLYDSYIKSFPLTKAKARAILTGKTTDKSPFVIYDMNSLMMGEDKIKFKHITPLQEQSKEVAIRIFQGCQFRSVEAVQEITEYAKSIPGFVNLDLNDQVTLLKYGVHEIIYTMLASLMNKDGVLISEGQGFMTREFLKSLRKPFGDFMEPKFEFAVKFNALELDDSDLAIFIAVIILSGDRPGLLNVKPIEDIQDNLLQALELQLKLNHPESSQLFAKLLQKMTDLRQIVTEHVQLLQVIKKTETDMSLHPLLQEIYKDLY
EC50 [1],Structure (SMILES),also measured
96 nM,CC(C)(Sc1ccc2c(c1)CC(NC(=O)Nc1ccc(OC(F)(F)F)cc1)C2)C(=O)O (stereo not given),
2850 nM,CN(C(=O)Nc1ccc(OC(F)(F)F)cc1)C1Cc2ccc(SC(C)(C)C(=O)O)cc2C1 (stereo not given),
159 nM,CCCCCN(C(=O)Nc1ccc(C(C)C)cc1)C1Cc2ccc(SC(C)(C)C(=O)O)cc2C1 (stereo not given),
1030 nM,CCCCCCCCN(C(=O)Nc1ccc(OC(F)(F)F)cc1)C1Cc2ccc(SC(C)(C)C(=O)O)cc2C1 (stereo not given),
32 nM,CCN(C(=O)Nc1ccc(C(C)C)cc1)C1Cc2ccc(SC(C)(C)C(=O)O)cc2C1 (stereo not given),Cmax [2]: 32400 ng/mL; half-life [3]: 2.92 h; half-life at 5 µM [4]: 0.2 h; AUC [5]: 37100 ng·h/mL; bioavailability [6]: 34%; clearance [7]: 0.81 mL/min/kg
195 nM,CCCCN(C(=O)Nc1ccc(OC(F)(F)F)cc1)C1Cc2ccc(SC(C)(C)C(=O)O)cc2C1 (stereo not given),
105 nM,CCCCCN(C(=O)Nc1ccc(OC(F)(F)F)cc1)C1Cc2ccc(SC(C)(C)C(=O)O)cc2C1 (stereo not given),Cmax [2]: 16600 ng/mL; half-life [3]: 7.19 h; half-life at 5 µM [4]: 1.67 h; AUC [5]: 121000 ng·h/mL; bioavailability [6]: 24%; clearance [7]: 0.25 mL/min/kg
23 nM,CCN(C(=O)Nc1ccc(SC(F)(F)F)cc1)C1Cc2ccc(SC(C)(C)C(=O)O)cc2C1 (stereo not given),Cmax [2]: 5670 ng/mL; half-life [3]: 3.84 h; half-life at 5 µM [4]: 1.67 h; AUC [5]: 101000 ng·h/mL; bioavailability [6]: 100%; clearance [7]: 0.3 mL/min/kg
46 nM,CCCCCN(C(=O)Nc1ccc(SC(F)(F)F)cc1)C1Cc2ccc(SC(C)(C)C(=O)O)cc2C1 (stereo not given),Cmax [2]: 8020 ng/mL; half-life [3]: 4.05 h; half-life at 5 µM [4]: 1.27 h; AUC [5]: 54700 ng·h/mL; bioavailability [6]: 59%; clearance [7]: 0.55 mL/min/kg
165 nM,CCN(C(=O)Nc1ccc(OC(F)(F)F)cc1)[C@H]1Cc2ccc(SC(C)(C)C(=O)O)cc2C1,
2730 nM,CCCCCCCN(C(=O)Nc1cccc(C(F)(F)F)c1)C1Cc2ccc(SC(C)(C)C(=O)O)cc2C1 (stereo not given),
> 10000 nM,CCCCCCCN(C(=O)Nc1ccccc1F)C1Cc2ccc(SC(C)(C)C(=O)O)cc2C1 (stereo not given),
180 nM,CCCCCCN(C(=O)Nc1ccc(C(C)C)cc1)C1Cc2ccc(SC(C)(C)C(=O)O)cc2C1 (stereo not given),
2340 nM,CC(C)CN(C(=O)Nc1ccc(OC(F)(F)F)cc1)C1Cc2ccc(SC(C)(C)C(=O)O)cc2C1 (stereo not given),
1110 nM,CCCCCCCN(C(=O)Nc1cccc(OC)c1)C1Cc2ccc(SC(C)(C)C(=O)O)cc2C1 (stereo not given),
6390 nM,CCCCCCCN(C(=O)Nc1ccccc1C(F)(F)F)C1Cc2ccc(SC(C)(C)C(=O)O)cc2C1 (stereo not given),
598 nM,CCN(C(=O)Nc1ccc(OC(F)(F)F)cc1C)C1Cc2ccc(SC(C)(C)C(=O)O)cc2C1 (stereo not given),
> 5000 nM,CCCCCN(C(=O)NC1Cc2ccc(SC(C)(C)C(=O)O)cc2C1)c1ccc(OC(F)(F)F)cc1 (stereo not given),
910 nM,CCCCCCCN(C(=O)Nc1ccc(OC)cc1)C1Cc2ccc(SC(C)(C)C(=O)O)cc2C1 (stereo not given),
> 10000 nM,CCCCCCCN(C(=O)Nc1ccc(F)cc1F)C1Cc2ccc(SC(C)(C)C(=O)O)cc2C1 (stereo not given),
> 10000 nM,CCCCCCCN(C(=O)Nc1ccccc1)C1Cc2ccc(SC(C)(C)C(=O)O)cc2C1 (stereo not given),
2670 nM,CCCCCCCN(C(=O)Nc1cccc(F)c1)C1Cc2ccc(SC(C)(C)C(=O)O)cc2C1 (stereo not given),
707 nM,CC(C)(Sc1ccc2c(c1)CC(N(CCCC(F)(F)F)C(=O)Nc1ccc(OC(F)(F)F)cc1)C2)C(=O)O (stereo not given),
1270 nM,CCCCCCCN(C(=O)Nc1ccc(C(F)(F)F)cc1)C1Cc2ccc(SC(C)(C)C(=O)O)cc2C1 (stereo not given),
294 nM,CCCCCCCN(C(=O)Nc1ccc(OC(F)(F)F)cc1)C1Cc2ccc(SC(C)(C)C(=O)O)cc2C1 (stereo not given),
7540 nM,CCCCCCCN(C(=O)Nc1ccccc1C)C1Cc2ccc(SC(C)(C)C(=O)O)cc2C1 (stereo not given),

EC50 [1],Structure (SMILES),also measured
386 nM,CC(C)CCN(C(=O)Nc1ccc(OC(F)(F)F)cc1)C1Cc2ccc(SC(C)(C)C(=O)O)cc2C1 (stereo not given),
249 nM,CCCCCCN(C(=O)Nc1ccc(SC(F)(F)F)cc1)C1Cc2ccc(SC(C)(C)C(=O)O)cc2C1 (stereo not given),
219 nM,CCCCCCN(C(=O)Nc1ccc(N(C)C)cc1)C1Cc2ccc(SC(C)(C)C(=O)O)cc2C1 (stereo not given),
561 nM,CCCCN(C(=O)Nc1ccc(N(C)C)cc1)C1Cc2ccc(SC(C)(C)C(=O)O)cc2C1 (stereo not given),
> 10000 nM,CC(C)(Oc1ccc(C2CC2(Cl)Cl)cc1)C(=O)O (stereo not given) [CIPROFIBRATE],
> 13000 nM,CCCCCCCN(C(=O)Nc1ccc(OC(F)(F)F)cc1)[C@H]1Cc2ccc(SC(C)(C)C(=O)O)cc2C1,
252 nM,CCCCCCCN(C(=O)Nc1ccc(N(C)C)cc1)C1Cc2ccc(SC(C)(C)C(=O)O)cc2C1 (stereo not given),
> 1000 nM,CCN(C(=O)N(C)c1ccc(OC(F)(F)F)cc1)C1Cc2ccc(SC(C)(C)C(=O)O)cc2C1 (stereo not given),
> 3000 nM,CCN(C(=O)Nc1ccc(OC(F)(F)F)c(Br)c1)C1Cc2ccc(SC(C)(C)C(=O)O)cc2C1 (stereo not given),
> 3000 nM,CCN(C(=O)Nc1ccc(OC(F)(F)F)c(Cl)c1)C1Cc2ccc(SC(C)(C)C(=O)O)cc2C1 (stereo not given),
> 1000 nM,CCN(C(=O)Nc1ccc(OC(F)(F)F)cc1Br)C1Cc2ccc(SC(C)(C)C(=O)O)cc2C1 (stereo not given),
419 nM,CCCCCCCN(C(=O)Nc1ccc(SC)cc1)C1Cc2ccc(SC(C)(C)C(=O)O)cc2C1 (stereo not given),
166 nM,CCCCCCN(C(=O)Nc1ccc(OC(F)(F)F)cc1)C1Cc2ccc(SC(C)(C)C(=O)O)cc2C1 (stereo not given),
229 nM,CCCCCCCN(C(=O)Nc1ccc(C(C)C)cc1)C1Cc2ccc(SC(C)(C)C(=O)O)cc2C1 (stereo not given),
146 nM,CC(C)(Sc1ccc2c(c1)C[C@H](NC(=O)Nc1ccc(OC(F)(F)F)cc1)C2)C(=O)O,
4990 nM,CCCCCCCN(C(=O)Nc1ccccc1OC(F)(F)F)C1Cc2ccc(SC(C)(C)C(=O)O)cc2C1 (stereo not given),
425 nM,COCCN(C(=O)Nc1ccc(OC(F)(F)F)cc1)C1Cc2ccc(SC(C)(C)C(=O)O)cc2C1 (stereo not given),
210 nM,CCCCCCCN(C(=O)Nc1ccc(SC(F)(F)F)cc1)C1Cc2ccc(SC(C)(C)C(=O)O)cc2C1 (stereo not given),
260 nM,CCCCN(C(=O)Nc1ccc(C(C)C)cc1)C1Cc2ccc(SC(C)(C)C(=O)O)cc2C1 (stereo not given),
117 nM,CCN(C(=O)Nc1ccc(N(C)C)cc1)C1Cc2ccc(SC(C)(C)C(=O)O)cc2C1 (stereo not given),Cmax [2]: 72300 ng/mL; half-life [3]: 4.46 h; half-life at 5 µM [4]: 1.33 h; AUC [5]: 273000 ng·h/mL; bioavailability [6]: 58%; clearance [7]: 0.11 mL/min/kg
169 nM,CCCCCCCN(C(=O)Nc1ccc(OC(F)(F)F)cc1)[C@@H]1Cc2ccc(SC(C)(C)C(=O)O)cc2C1,
1110 nM,CC(C)(Sc1ccc2c(c1)C[C@@H](NC(=O)Nc1ccc(OC(F)(F)F)cc1)C2)C(=O)O,
141 nM,CCCCCN(C(=O)Nc1ccc(N(C)C)cc1)C1Cc2ccc(SC(C)(C)C(=O)O)cc2C1 (stereo not given),Cmax [2]: 20800 ng/mL; half-life [3]: 2.6 h; half-life at 5 µM [4]: 1.57 h; AUC [5]: 63600 ng·h/mL; bioavailability [6]: 62%; clearance [7]: 0.47 mL/min/kg
1960 nM,CCCCCCCN(C(=O)Nc1ccccc1SC(F)(F)F)C1Cc2ccc(SC(C)(C)C(=O)O)cc2C1 (stereo not given),
> 5000 nM,CC(C)N(C(=O)Nc1ccc(OC(F)(F)F)cc1)C1Cc2ccc(SC(C)(C)C(=O)O)cc2C1 (stereo not given),

Structure (SMILES),EC50 [1],also measured
CCCCCCCN(CCc1ccc(SC(C)(C)C(=O)O)cc1)C(=O)Nc1ccc(F)cc1F [GSK-9578],166 nM,EC50 [8]: 150 nM; Activity [9]: 0.46%
